{
  "source": "paper PMC8497156",
  "about": "“Complexed Crystal Structure of Saccharomyces cerevisiae Dihydroorotase with Inhibitor 5-Fluoroorotate Reveals a New Binding Mode” (Bioinorganic Chemistry and Applications, 2021)",
  "assay_type_in_all_cases": "binding",
  "key": {"[1]": {"biological_target": "T1, dihydroorotase (ScDHOase-T106A) (Saccharomyces cerevisiae, UniProt P20051, T106A)", "T1 construct": "gene URA4", "T1 sequence (P20051 whole entry T106A)": "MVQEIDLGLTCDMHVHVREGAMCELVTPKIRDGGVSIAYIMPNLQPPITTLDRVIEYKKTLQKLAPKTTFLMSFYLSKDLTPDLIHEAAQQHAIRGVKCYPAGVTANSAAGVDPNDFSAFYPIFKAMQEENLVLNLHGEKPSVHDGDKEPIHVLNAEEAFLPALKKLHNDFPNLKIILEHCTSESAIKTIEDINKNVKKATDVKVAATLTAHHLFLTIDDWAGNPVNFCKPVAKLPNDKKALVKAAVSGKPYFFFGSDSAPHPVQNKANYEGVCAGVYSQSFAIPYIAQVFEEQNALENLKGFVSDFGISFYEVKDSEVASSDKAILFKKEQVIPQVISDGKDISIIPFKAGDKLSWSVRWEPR", "test": "intrinsic fluorescence quenching titration"}, "[2]": {"biological_target": "T2, dihydroorotase (ScDHOase-R18A) (Saccharomyces cerevisiae, UniProt P20051, R18A)", "T2 construct": "gene URA4", "T2 sequence (P20051 whole entry R18A)": "as the sequence (P20051 whole entry T106A) above, with R18A, A106T counted along it", "test": "intrinsic fluorescence quenching titration"}, "[3]": {"biological_target": "T3, dihydroorotase (ScDHOase) (Saccharomyces cerevisiae, UniProt P20051)", "T3 construct": "gene URA4", "T3 sequence (P20051 1-364)": "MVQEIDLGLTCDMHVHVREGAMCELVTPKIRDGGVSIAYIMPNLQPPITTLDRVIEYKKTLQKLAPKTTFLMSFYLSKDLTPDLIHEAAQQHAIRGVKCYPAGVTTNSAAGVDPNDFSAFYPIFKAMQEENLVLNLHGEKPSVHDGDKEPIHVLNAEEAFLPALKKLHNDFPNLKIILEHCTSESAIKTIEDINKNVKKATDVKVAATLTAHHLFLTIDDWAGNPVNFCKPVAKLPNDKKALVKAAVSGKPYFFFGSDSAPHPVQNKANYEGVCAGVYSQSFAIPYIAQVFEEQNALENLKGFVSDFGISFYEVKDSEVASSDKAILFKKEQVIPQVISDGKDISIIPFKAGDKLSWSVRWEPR", "test": "Kd by intrinsic fluorescence quenching"}},
  "data": [
    {"compound": "O=C(O)c1[nH]c(=O)[nH]c(=O)c1F", "note": "[5-FOA, 5-fluoroorotate]", "values": [
      {"measurement": "Kd", "setting": "[1]", "result": "115 ± 3.7", "unit": "µM"},
      {"measurement": "Kd", "setting": "[2]", "result": "144 ± 2.1", "unit": "µM"},
      {"measurement": "Kd", "setting": "[3]", "result": "83.8 ± 1.5", "unit": "µM"}
    ]}
  ]
}
